For series [1], the system named is New Zealand white rabbits. Put plainly: local and systemic toxicity after glaucoma filtration surgery. Type of series: in vivo. The conditions noted are these: rabbit; for Ki67 positive cells in the conjunctival epithelium: day 30; for corneal or conjunctival toxicities, anterior chamber inflammation / local toxicity, conjunctival epithelium: local delivery; for systemic toxicity: local delivery to the conjunctiva. On the procedure:
The animals were evaluated twice weekly by a single-masked researcher. Bleb width and length were measured using calipers and intraocular pressures (IOP) were measured using a tonovet (Icare). The primary efficacy end-point was bleb survival as this is indicative of the long-term opening of the filtration pathway created during surgery. Bleb failure was defined as the appearance of a flat, scarred, and vascularised bleb associated with a deep anterior chamber. IOP survival, defined as when the intraocular pressure remains below the baseline IOP measurement, and bleb area were used as secondary end-points. Conjunctival vascularity was graded on a scale of 0 to 3 (0: avascular, 1: normal, 2: hyperaemic, 3: very hyperaemic).
For the Ki67 staining, the sections were dewaxed, rehydrated, and microwaved for 15 minutes in sodium citrate buffer (pH 6) for antigen retrieval. After incubating in 1.6% hydrogen peroxide followed by 10% normal horse serum, the sections were incubated in mouse anti-Ki67 (M7248, Dako) diluted 1 in 25 in 1% BSA/PBS for 1 hour at room temperature. The sections were then incubated in biotinylated horse anti-mouse IgG (Vector) and Avidin-Biotin complex (Vector), developed in DAB (Vector), and counterstained in haematoxylin.
All animals were carefully evaluated for any signs of ocular or systemic toxicity during the study. At day 30, 100 µl of aqueous, 1 ml of vitreous, and 1 ml of venous blood were sampled on the rabbit eyes receiving CCG-222740 or CCG-203971 or vehicle control. The venous blood samples were left to clot for 30 minutes at room temperature, spun at 4000 rpm for 15 minutes at 4 °C, and the serum was collected as the supernatant. Samples were extracted in acetonitrile and the levels of CCG-222740 and CCG-203971 were measured in the aqueous, vitreous, and serum using liquid chromatography/mass spectrometry (LC/MS) in the Metabolomics Core at Michigan State University (East Lansing, MI).

The subject of series [2] is SRF reporter gene. Briefly: SRF reporter gene assay in transfected cells. Type of series: cell-based. The conditions noted are these: human and rabbit conjunctival fibroblasts (3DA.Luc), HEK293 (SRE.L luc), 24 hours. On the procedure: Human or rabbit conjunctival fibroblasts were plated at 2 × 10^4 cells/well in 24-well plates (Falcon, Fisher Scientific) for transient transfection. Conjunctival fibroblasts in each well were co-transfected using 2.5 μl Lipofectamine LTX and 0.5 μl Plus reagent (Invitrogen) with 8 ng of SRF reporter plasmid 3DA.Luc, 20 ng of pTK-Renilla-Luc and 172 ng of pEF in OptiMEM (Gibco)[58]. After 2 hours of transfection, fibroblasts were allowed to recover in DMEM +10% FCS overnight.
HEK293T cells were plated at 2 × 10^4 cells/well in 96-well plates (Falcon, Fisher Scientific) and co-transfected using Lipofectamine 2000 (Invitrogen) with 4 ng of SRF reporter plasmid SRE.L. luciferase, and 2 ng of either Gα12Q231L or pcDNA3.1/Zeo(−) diluted in Opti-MEM (Gibco). After 5 hours of transfection, cells were allowed to recover in DMEM +10% FCS overnight.
The next day, the cells were serum starved in DMEM +0.3% FCS and 5, 25, 50, or 100 μM of CCG-222740 or CCG-203971 or 0.1% DMSO control for 24 hours. The cells were then lysed and luciferase levels were measured using a Luciferase Assay System (Promega), according to the manufacturer’s instructions. Each experiment was carried out in triplicates for each condition and the experiment was repeated three times.
(In general: Reporter assays use an easily measured gene product as a stand-in for the process of interest.)

The test system of series [3] is rabbit conjunctival tissue. Put plainly: histologic analysis of bleb tissue after glaucoma filtration surgery. Type of series: in vivo. The settings on record: for expression of αSMA by cells in tissue sections / scar tissue formation (picrosirius red) compared to vehicle control: day 30; for newly laid extracellular matrix and collagen (Gomori's trichrome): day 30, vehicle versus treated. How it is done:
We further evaluated the histologic differences after local delivery of CCG-222740 and CCG-203971. The white filtration tube was used as landmark and the plane of sectioning of the bleb area was performed 2 mm from the tube (black line in Fig. 5). Grading was performed using a modified system originally described by Shah et al.[34]. The left operated eyes were compared to the right non-operated eyes that were used as controls for the appearance of normal conjunctival tissue. The sections were graded using a scale of −4 to +4 (0 = same as control eye; 1 = 1–25% difference from control eye; 2 = 26–50% difference from control eye; 3 = 51–75% difference from control eye; 4 = >75% difference from control eye; prefix+, more than; prefix−, less than). Analysis was performed using the mean results in each treatment group.
The animals were sacrificed on day 30 and both eyes were enucleated. The eyes were fixed in formalin, embedded in paraffin, and sequential 4 μm tissue sections were cut.
The sections were stained with hematoxylin and eosin (for cellularity and inflammatory cells), Gomori’s trichrome (for collagen), picrosirius red (for degree of fibrosis and collagen deposition), and alpha-smooth muscle actin (αSMA) using a primary monoclonal mouse anti-human αSMA antibody (Clone 1A4; Dako, High Wycombe, UK) and a biotinylated secondary antibody (rabbit anti-mouse; Dako). All the left operated eyes were compared to the right non-operated eyes that were used as controls for the appearance of normal conjunctival tissue. The sections were graded using a modified grading system originally described by Shah et al.[34], with a scale of −4 to +4 according to the staining intensity. Grades were defined as 0 = same as control eye; 1 = 1–25% difference from control eye; 2 = 26–50% difference from control eye; 3 = 51–75% difference from control eye; 4 = >75% difference from control eye (prefix+, more than; prefix −, less than).

On to `O=C(Nc1ccc(Cl)cc1)C1CCCN(C(=O)c2cccc(-c3ccco3)c2)C1` (stereo not drawn) [CCG-203971], for which, in series [1], the conjunctival vascularity result was “no abnormalities in conjunctival vascularity”; the “Ki67 positive cells in the conjunctival epithelium” value is “normal Ki67 positive cells”; the “corneal or conjunctival toxicities, anterior chamber inflammation” value was “no signs of corneal or conjunctival toxicities or anterior chamber inflammation”; the “local toxicity, conjunctival epithelium” value is “did not cause any detectable local toxicity”. Moreover, the systemic toxicity result in series [1] is on record as “none of them showed any signs of systemic toxicity”. Besides, the “inhibition of baseline SRF reporter activity” value in series [2] is roughly 100%. Moreover, in series [3], the “expression of αSMA by cells in tissue sections” value was “significantly decreased the expression of αSMA”; the “scar tissue formation (picrosirius red) compared to vehicle control” value is reported as “significant decrease in scar tissue formation”; the “newly laid extracellular matrix and collagen (Gomori's trichrome)” value is “present to a greater degree in the vehicle-treated group compared to”.

`O=C(Nc1ccc(Cl)cc1)C1CN(C(=O)c2cccc(-c3ccco3)c2)CC(F)(F)C1` (stereo not drawn) [CCG-222740]: in series [1], the conjunctival vascularity entry is listed as “no abnormalities in conjunctival vascularity”; the “Ki67 positive cells in the conjunctival epithelium” value is given as “normal Ki67 positive cells”; the “corneal or conjunctival toxicities, anterior chamber inflammation” value is on record as “no signs of corneal or conjunctival toxicities or anterior chamber inflammation”; the “local toxicity, conjunctival epithelium” value is recorded as “did not cause any detectable local toxicity”. Moreover, the systemic toxicity entry in series [1] is recorded as “none of them showed any signs of systemic toxicity”. Besides, in series [2], the “inhibition of baseline SRF reporter activity” value is roughly 100%. For the same molecule, in series [3], the “expression of αSMA by cells in tissue sections” value is recorded as “significantly decreased the expression of αSMA”; the “scar tissue formation (picrosirius red) compared to vehicle control” value is “significant decrease in scar tissue formation”; the “newly laid extracellular matrix and collagen (Gomori's trichrome)” value was “present to a greater degree in the vehicle-treated group compared to”.
